Reference: ChEMBL document CHEMBL1201861, “Genomics of Drug Sensitity in Cancer screening data, Wellcome Trust Sanger Institute”
pIC50: −log10 of the molar value.

Assays:
Test in all cases: cells
MV4-11 = type: functional, cell-based, MV-4-11; settings: Homo sapiens;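 note: cell viability readout measuring growth inhibition of human MV-4-11 cells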
Description: SANGER: Inhibition of human MV-4-11 cell growth in a cell viability assay.

SF-539 = type: functional, cell-based, Homo sapiens; settings: Homo sapiens, SF-539;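 note: Read-out is a cell viability assay, with IC50 reflecting inhibition of cell growth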
Description: SANGER: Inhibition of human SF539 cell growth in a cell viability assay.

Calu-6 = type: functional, cell-based, Homo sapiens; settings: Homo sapiens, Calu-6;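 note: growth of human Calu-6 cells, read out by a cell viability assay, IC50 marking inhibition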
Description: SANGER: Inhibition of human Calu-6 cell growth in a cell viability assay.

DMS-273 = type: functional, cell-based, Homo sapiens; settings: Homo sapiens, DMS-273
Description: SANGER: Inhibition of human DMS-273 cell growth in a cell viability assay.

Detroit 562 = type: functional, cell-based, Homo sapiens; settings: Homo sapiens, Detroit 562;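 note: growth inhibition of human Detroit 562 cells, read out by a cell viability assay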
Description: SANGER: Inhibition of human Detroit562 cell growth in a cell viability assay.

D-423MG = type: functional, cell-based; settings: Homo sapiens
Description: SANGER: Inhibition of human D-423MG cell growth in a cell viability assay.

ES1 = type: functional, cell-based, Homo sapiens; settings: Homo sapiens, ES1;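 note: growth inhibition of ES1 cells, read out with a cell viability assay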
Description: SANGER: Inhibition of human ES1 cell growth in a cell viability assay.

NB5 = type: functional, cell-based, Homo sapiens; settings: Homo sapiens, NB5;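 note: growth inhibition of NB5 cells, read out as cell viability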
Description: SANGER: Inhibition of human NB5 cell growth in a cell viability assay.

EM-2 = type: functional, cell-based; settings: Homo sapiens;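 note: growth inhibition of EM-2 cells, read out with a cell viability assay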
Description: SANGER: Inhibition of human EM-2 cell growth in a cell viability assay.

HEL = type: functional, cell-based, Homo sapiens; settings: Homo sapiens, HEL;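 note: growth inhibition of HEL cells, read out with a cell viability assay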
Description: SANGER: Inhibition of human HEL cell growth in a cell viability assay.

CCRF-CEM = type: functional, cell-based; settings: Homo sapiens;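 note: inhibition of CCRF-CEM cell growth, measured by a cell viability assay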
Description: SANGER: Inhibition of human CCRF-CEM cell growth in a cell viability assay.

A549 = type: functional, cell-based; settings: Homo sapiens;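 note: growth inhibition of A549 cells, read out with a cell viability assay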
Description: SANGER: Inhibition of human A549 cell growth in a cell viability assay.

RPMI-7951 = type: functional, cell-based, Homo sapiens; settings: Homo sapiens, RPMI-7951
Description: SANGER: Inhibition of human RPMI-7951 cell growth in a cell viability assay.

NB6 = type: functional, cell-based, Homo sapiens; settings: Homo sapiens, NB6;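 note: growth inhibition of NB6 cells, read out by a cell viability assay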
Description: SANGER: Inhibition of human NB6 cell growth in a cell viability assay.

HSC-2 = type: functional, cell-based, Homo sapiens; settings: Homo sapiens, HSC-2;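 note: growth inhibition of human HSC-2 cells, read out by a cell viability assay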
Description: SANGER: Inhibition of human HSC-2 cell growth in a cell viability assay.

NCI-H460 = type: functional, cell-based, Homo sapiens; settings: Homo sapiens, NCI-H460;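 note: cell viability assay scoring growth inhibition of human NCI-H460 cells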
Description: SANGER: Inhibition of human NCI-H460 cell growth in a cell viability assay.

NCI-H630 = type: functional, cell-based, Homo sapiens; settings: Homo sapiens, NCI-H630;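 note: growth inhibition of NCI-H630 cells, read out with a cell viability assay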
Description: SANGER: Inhibition of human NCI-H630 cell growth in a cell viability assay.

CP50-MEL-B = type: functional, cell-based, Homo sapiens; settings: Homo sapiens, CP50-MEL-B;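 note: growth inhibition of the human cell line, measured with a cell viability read-out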
Description: SANGER: Inhibition of human CP50-MEL-B cell growth in a cell viability assay.

EFM-19 = type: functional, cell-based, Homo sapiens; settings: Homo sapiens, EFM-19;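 note: growth inhibition of human EFM-19 cells, measured in a cell viability assay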
Description: SANGER: Inhibition of human EFM-19 cell growth in a cell viability assay.

LB831-BLC = type: functional, cell-based, Homo sapiens; settings: Homo sapiens, LB831-BLC;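 note: growth inhibition of LB831-BLC cells, read out with a cell viability assay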
Description: SANGER: Inhibition of human LB831-BLC cell growth in a cell viability assay.

SW900 = type: functional, cell-based; settings: Homo sapiens;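 note: IC50 is the concentration that inhibits SW900 cell growth, measured by a cell viability assay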
Description: SANGER: Inhibition of human SW900 cell growth in a cell viability assay.

G-361 = type: functional, cell-based, Homo sapiens; settings: Homo sapiens, G-361
C32 = type: functional, cell-based, Homo sapiens; settings: Homo sapiens, C32;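 note: cell viability assay, with IC50 reflecting inhibition of C32 cell growth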
Description: SANGER: Inhibition of human C32 cell growth in a cell viability assay.

J-RT3-T3-5 = type: functional, cell-based; settings: Homo sapiens;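 note: cell viability assay measuring growth inhibition of human J-RT3-T3-5 cells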
Description: SANGER: Inhibition of human J-RT3-T3-5 cell growth in a cell viability assay.

NCI-H1666 = type: functional, cell-based; settings: Homo sapiens;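 note: growth inhibition of the cell line, read out with a cell viability assay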
Description: SANGER: Inhibition of human NCI-H1666 cell growth in a cell viability assay.

EW-22 = type: functional, cell-based; settings: Homo sapiens;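 note: growth inhibition of the EW-22 cell line, measured with a cell viability readout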
Description: SANGER: Inhibition of human EW-22 cell growth in a cell viability assay.

LB996-RCC = type: functional, cell-based; settings: Homo sapiens
Description: SANGER: Inhibition of human LB996-RCC cell growth in a cell viability assay.

NCI-H522 = type: functional, cell-based, Homo sapiens; settings: Homo sapiens, NCI-H522;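 note: cell viability assay measuring growth inhibition of human NCI-H522 cells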
Description: SANGER: Inhibition of human NCI-H522 cell growth in a cell viability assay.

HCC2157 = type: functional, cell-based; settings: Homo sapiens;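 note: growth inhibition of the cancer cell line, read out as cell viability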
Description: SANGER: Inhibition of human HCC2157 cell growth in a cell viability assay.

Structure (SMILES) | pIC50 (MV4-11) | pIC50 (SF-539) | pIC50 (Calu-6) | pIC50 (DMS-273) | pIC50 (Detroit 562) | pIC50 (D-423MG) | pIC50 (ES1) | pIC50 (NB5) | pIC50 (EM-2) | pIC50 (HEL) | pIC50 (CCRF-CEM) | pIC50 (A549) | pIC50 (RPMI-7951) | pIC50 (NB6) | pIC50 (HSC-2) | pIC50 (NCI-H460) | pIC50 (NCI-H630) | pIC50 (CP50-MEL-B) | pIC50 (EFM-19) | pIC50 (LB831-BLC) | other results
O=C(NOCC1CC1)c1ccc(F)c(F)c1Nc1ccc(I)cc1Cl [CI-1040] | 5.21 | < 5.00 | 5.17 | < 5.00 | < 5.00 | 5.51 | < 5.00 | 5.34 | 5.68 | < 5.00 | < 5.00 | 5.92 | 5.37 | < 5.00 | < 5.00 | < 5.00 | < 5.00 | 6.76 | < 5.00 | < 5.00 | pIC50 (SW900): < 5.00; pIC50 (G-361): 6.43; pIC50 (C32): 6.72; pIC50 (J-RT3-T3-5): < 5.00; pIC50 (NCI-H1666): 5.22; pIC50 (EW-22): < 5.00
Nc1ccn([C@@H]2O[C@H](CO)[C@@H](O)[C@@H]2O)c(=O)n1 [CYTARABINE] | 5.73 | 6.14 | < 5.70 | 5.84 | < 5.70 | 6.53 | 7.89 | 6.34 | 6.67 | 7.69 | < 5.70 | 7.30 | 6.47 | < 5.70 | 5.84 | < 5.70 | < 5.70 | < 5.70 | < 5.70 | < 5.70 | pIC50 (SW900): 5.79; pIC50 (G-361): < 5.70; pIC50 (C32): < 5.70; pIC50 (J-RT3-T3-5): 7.16; pIC50 (NCI-H1666): 5.80; pIC50 (EW-22): 6.18
COc1ccc(C2=N[C@@H](c3ccc(Cl)cc3)[C@@H](c3ccc(Cl)cc3)N2C(=O)N2CCNC(=O)C2)c(OC(C)C)c1 [NUTLIN-3] | 6.21 | < 5.10 | < 5.10 | < 5.10 | < 5.10 | < 5.10 | < 5.10 | 5.18 | < 5.10 | < 5.10 | < 5.10 | 5.44 | < 5.10 | < 5.10 | < 5.10 | 5.31 | < 5.10 | 5.37 | < 5.10 | < 5.10 | pIC50 (LB996-RCC): 5.44; pIC50 (NCI-H522): < 5.10; pIC50 (HCC2157): < 5.10; pIC50 (SW900): < 5.10; pIC50 (C32): 5.25; pIC50 (J-RT3-T3-5): < 5.10; pIC50 (NCI-H1666): < 5.10; pIC50 (EW-22): < 5.10
Cn1cc(C2=C(c3ccc(Cl)cc3Cl)C(=O)NC2=O)c2ccccc21 [SB-216763] | 5.57 | < 5.00 | < 5.00 | < 5.00 | < 5.00 | < 5.00 | < 5.00 | < 5.00 | < 5.00 | < 5.00 | < 5.00 | < 5.00 | < 5.00 | < 5.00 | < 5.00 | < 5.00 | < 5.00 | < 5.00 | < 5.00 | < 5.00 | pIC50 (SW900): < 5.00; pIC50 (G-361): < 5.00; pIC50 (C32): < 5.00; pIC50 (J-RT3-T3-5): < 5.00; pIC50 (NCI-H1666): < 5.00; pIC50 (EW-22): < 5.00
